{"source": "paper PMC11931052", "about": "“Efficacy of dispirotripiperazine PDSTP in a golden Syrian hamster model of SARS-CoV-2 infection” (Frontiers in Microbiology, 2025)", "key": {"[1]": {"tested_on": "SARS-CoV-2 clinical isolate 35245", "assay": "Plaque reduction assay, SARS-CoV-2 35245", "type": "cell-based", "details": "Severe acute respiratory syndrome coronavirus 2, read-out: Antiviral activity IC50 against coronaviruses, SARS-CoV-2 clinical isolate 35245, PR"}, "[2]": {"tested_on": "SARS-CoV-2 clinical isolate 35245", "assay": "Microtetrazolium (MTT) test, SARS-CoV-2 35245", "type": "cell-based", "details": "Severe acute respiratory syndrome coronavirus 2, read-out: Antiviral activity IC50 against coronaviruses, SARS-CoV-2 clinical isolate 35245, MTT", "protocol": "The compound’s activity against OC43 and SARS-CoV-235245 was based on the inhibition of virus-induced cytopathogenicity in acutely infected Vero-76 cells (MOI 0.01). Briefly, Vero-76 cells were seeded in 96-well plates at a density of 3 × 10^4 cells/well and incubated in a growth medium in a 5% CO2 at 37°C overnight. Cell monolayers were then infected with 50 μL of the appropriate viral dilution in maintenance medium [D-MEM and MEM-Earl (Gibco, Thermo Fisher Scientific, MA United States) with L-glutamine (Gibco), 1 mM sodium pyruvate (Gibco), and 0.025 g/L kanamycin (Gibco), supplemented with 0.5% inactivated FBS (Harlan Sera-Lab, Loughborough, United Kingdom), respectively] to give an MOI of 0.01, without or with serial dilutions of test samples. After 6 (HCoV-OC43) and 4/5 (SARS-CoV-2) days of incubation at 37°C, the extent of cell viability was quantified using a tetrazolium-based colorimetric method, in which the reduction of 3-(4,5-dimethylthiazol-2-yl)-2,5-diphenyl-tetrazolium bromide (MTT) by mitochondrial dehydrogenases to a soluble colored formazan was measured using a spectrophotometer (Infinity 200, Tecan Austria GmbH, Austria) at 570 nm, as previously reported ([Sanna et al., 2020])."}, "SARS-COV-2 PV10734": {"tested_on": "SARS-COV-2 PV10734", "assay": "Penetration assay in Vero cells", "type": "cell-based", "details": "at higher concentrations", "protocol": "A penetration assay was performed with small modifications according to the method reported earlier ([Chang et al., 2012]). A 24-well tissue culture plate was seeded with Vero cells (3 × 10^5 cells/well), which were then incubated overnight at 37°C in a 5% CO2 atmosphere. The cells were pre-chilled on ice for 1 h, and the medium was removed. The cells were infected with 100 PFU of SARS-CoV-2 PV10734 on ice for 2 h. The medium containing the unbound virus was then removed. Various concentrations of PDSTP (100–0.8 μM) in the medium were added, and the cells were incubated at 37°C for 1 h to trigger endocytosis of the virus. The infected cells were then treated with alkaline PBS (pH 11) for 1 min to inactivate viruses that had not penetrated the cells. Acidic PBS (pH 3) was then added to neutralize the mixture. The neutralized medium was removed; the cells were overlaid with methylcellulose in media and then were incubated at 37°C. After the 72-h incubation period, the cells were stained, and the plaques were determined by counting."}, "HCoV-229E": {"tested_on": "HCoV-229E", "assay": "Plaque reduction assay, HCoV-229E in Vero E6 cells", "type": "cell-based", "protocol": "(§1) Vero E6 cells were incubated in the presence of PDSTP and reference compounds (100.0, 20.0, 4.0, and 0.8 μM concentrations) for 1 h at 37°C in a 5% CO2 and then infected for 1 h with 250 μL of the corresponding virus (SARS-CoV-2 PV10734 or HCoV-229E) dilutions to obtain 50–100 PFU/well. The plates were then incubated for 1 h at 37°C in a 5% CO2 atmosphere. Following the removal of the unabsorbed virus, 400 μL of the medium (D-MEM with L-glutamine, 4,500 mg/L D-glucose, and 1% inactivated FBS) containing 0.75% methyl-cellulose (M0512, viscosity 4,000 cP, Sigma-Aldrich, United States) and the serial dilutions of the compounds were added and incubated for 4 (SARS-CoV-2) or 2 (HCoV-229E) days at 37°C in a 5% CO2 atmosphere. Subsequently, the cells were fixed and stained with a 0.2% crystal violet solution (V5265, Sigma-Aldrich, United States) and then the number of plaques was calculated. The degree of cell growth/viability and viral multiplication at each drug concentration tested was expressed as a percentage of the untreated control. Concentrations resulting in 50% inhibition (CC50 or EC50) were determined using linear regression analysis."}, "[3]": {"tested_on": "SARS-CoV-2 ancestral PV10734 strain", "assay": "Yield reduction assay in Calu-3 cells, SARS-CoV-2 ancestral PV10734 strain", "type": "cell-based", "details": "PDSTP 20 and 4 μM, day 3 post-infection, p < 0.0001"}, "[4]": {"tested_on": "SARS-CoV-2 clinical isolate VR PV10734", "assay": "Plaque reduction assay, SARS-CoV-2 VR PV10734 in Vero E6 cells", "type": "cell-based", "details": "Severe acute respiratory syndrome coronavirus 2, Vero C1008, mean ± SD, read-out: Antiviral activity IC50 against coronaviruses, SARS-CoV-2 clinical isolate VR PV10734, PR", "protocol": "as §1"}, "[5]": {"assay": "Allergenicity study, guinea pigs", "type": "in vivo", "details": "intradermal sensitizing dose 40 µg into the ear; epicutaneous and conjunctival testing"}, "mouse bone marrow cells": {"tested_on": "mouse bone marrow cells", "assay": "Chromosomal aberrations in mouse bone marrow cells", "type": "in vivo, F1 hybrids of SWAxC57BL/6 mice", "details": "400 mg/kg and 1000 mg/kg topically", "protocol": "PDSTP doses tested: 400 mg/kg and 1000 mg/kg\nTest subjects: F1 hybrids of SWAxC57BL/6 mice.\nMethod of administration: topically"}, "[6]": {"assay": "Allergenicity study, delayed-type hypersensitivity, mice", "type": "in vivo", "details": "SWA x C57BL/6 mice"}, "[7]": {"assay": "Reproductive toxicity: postnatal development of F1 generation offspring", "type": "in vivo, white laboratory rats", "details": "female rats received PDSTP from the 6th day of gestation to delivery", "protocol": "PDSTP doses tested: 10% solution\nTest subjects: white laboratory rats of both sexes\nDuring the study of postnatal development and fertility of F1 generation offspring born from female rats that received PDSTP from the 6th day of gestation to delivery, the rates of physical development, the rate of maturation of sensory-motor reflexes and emotional-motor behavior, as well as fertility were evaluated in comparison with rats born from intact females."}}, "note": "“Also recorded” adds a separate entry of the source."}
{"smiles": "Cc1nc(N2CC[N+]3(CC2)CC[N+]2(CCNCC2)CC3)c([N+](=O)[O-])c(N2CC[N+]3(CC2)CC[N+]2(CCNCC2)CC3)n1.Cl.Cl.O.O.O.O.O.O.O.O.O.[Cl-].[Cl-].[Cl-].[Cl-]", "note": "[PDSTP, 3,3′-(2-methyl-5-nitropyrimidine-4,6-diyl)bis-3,12-diaza-6,9-diazonia-dispiro[5.2.5.2]hexadecane tetrachloride dihydrochloride nonahydrate]", "values": [{"measurement": "IC50", "setting": "[1]", "result": "21.4 ± 7.4", "unit": "µM"}, {"measurement": "IC50", "setting": "[2]", "result": "14.5 ± 3.3", "unit": "µM"}, {"measurement": "Viral inhibition, penetration experiment", "setting": "SARS-COV-2 PV10734", "result": "only modest viral inhibition"}, {"measurement": "Antiviral activity against alphacoronavirus HCoV-229E", "setting": "HCoV-229E", "result": "no in vitro activity; also recorded: No antiviral activity was detected"}, {"measurement": "IC50", "setting": "HCoV-229E; Human coronavirus 229E, Vero C1008, Vero E6, mean ± SD, read-out: Antiviral activity IC50 against coronaviruses, HCoV-229E, PR", "result": "> 100", "unit": "µM"}, {"measurement": "Reduction of viral titer", "setting": "[3]", "result": "~100", "unit": "fold"}, {"measurement": "IC50", "setting": "[4]", "result": "1.8 ± 0.3", "unit": "µM"}, {"measurement": "Sensitizing properties", "setting": "[5]", "result": "no sensitizing properties"}, {"measurement": "Induction of chromosomal aberrations", "setting": "mouse bone marrow cells", "result": "did not reveal the ability to induce chromosomal aberrations"}, {"measurement": "Delayed-type hypersensitivity", "setting": "[6]", "result": "No delayed-type hypersensitivity was detected"}, {"measurement": "Effect on fertility of F1 generation offspring", "setting": "[7]", "result": "No statistically significant effect"}, {"measurement": "Effect on postnatal development of F1 generation offspring", "setting": "[7]", "result": "does not adversely affect the studied parameters"}]}
